Experimental data published in patent publication US20250282799A1, “SUBSTITUTED PYRIDO[4,3-d]PYRIMIDINES AS KRAS MODULATORS” (Alterome Therapeutics, Inc., priority 2023, published 2025).

tested on: KRAS G12V dependent lung adenocarcinoma cell line, NCI-H441; assay: Cellular pERK (Thr202/Tyr204) FRET/HTRF assay; type: cell-based; details: Homo sapiens, NCI-H441, cellular pERK (Thr202/Tyr204) HTRF, NCI-H441 cells
Procedure, shortened: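 NCI-H441 cells (KRAS G12V) plated overnight at 37 °C, then exposed to compounds for 1 hr at 37 °C, 5% CO2; DMSO as negative control. Lysates read by Eu-cryptate/d2 sandwich FRET (665 nm) for ERK1/2 phosphorylated at Thr202/Tyr204; IC50 from curve fit.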

| Compound | IC50 [nM] |
| --- | --- |
| [2H]C([2H])(Oc1nc(N2CCC(=O)C[C@@H]3[C@@H](F)[C@@H]32)c2cnc(-c3cc(N)cc4cc(F)c(F)c(C#C)c34)c(F)c2n1)[C@@]12CCCN1C[C@H](F)C2 [Example 196, (1R,7S,8R)-2-(7-(3-amino-8-ethynyl-6,7-difluoronaphthalen-1-yl)-8-fluoro-2-(((2R,7aS)-2-fluorotetrahydro-1H-pyrrolizin-7a(5H)-yl)methoxy-d2)pyrido[4,3-d]pyrimidin-4-yl)-8-fluoro-2-azabicyclo[5.1.0]octan-5-one] | < 50 |
| [2H]C([2H])(Oc1nc(N2CCOC[C@@H]3[C@@H](F)[C@@H]32)c2c(OC)nc(-c3cccc4ccc(F)c(C#C)c34)c(F)c2n1)[C@@]12CCCN1C[C@H](F)C2 [Example 236, (1R,7R,8R)-2-(7-(8-ethynyl-7-fluoronaphthalen-1-yl)-8-fluoro-2-(((2R,7aS)-2-fluorotetrahydro-1H-pyrrolizin-7a(5H)-yl)methoxy-d2)-5-methoxypyrido[4,3-d]pyrimidin-4-yl)-8-fluoro-5-oxa-2-azabicyclo[5.1.0]octane] | 500 to 10000 |
| [2H]C([2H])(Oc1nc(N2CCOC[C@@H]3[C@@H](Cl)[C@@H]32)c2cnc(-c3cc(N)cc4ccc(Cl)c(C#C)c34)c(F)c2n1)[C@@]12CCCN1[C@H](C)[C@H](F)C2 [Example 345, 6-chloro-4-(4-((1R,7R,8R)-8-chloro-5-oxa-2-azabicyclo[5.1.0]octan-2-yl)-8-fluoro-2-(((2R,3R,7aS)-2-fluoro-3-methyltetrahydro-1H-pyrrolizin-7a(5H)-yl)methoxy-d2)pyrido[4,3-d]pyrimidin-7-yl)-5-ethynylnaphthalen-2-amine] | 500 to 10000 |
| [2H]C([2H])(Oc1nc(N2CCOC[C@H]3[C@H](F)[C@H]32)c2cnc(-c3cc(O)cc(Cl)c3C(F)(F)F)c(F)c2n1)[C@@]12CCCN1C[C@H](F)C2 [Example 298, 3-chloro-5-(8-fluoro-4-((1S,7S,8S)-8-fluoro-5-oxa-2-azabicyclo[5.1.0]octan-2-yl)-2-(((2R,7aS)-2-fluorotetrahydro-1H-pyrrolizin-7a(5H)-yl)methoxy-d2)pyrido[4,3-d]pyrimidin-7-yl)-4-(trifluoromethyl)phenol] | < 50 |
| [2H]C([2H])(F)Oc1c(F)ccc2cccc(-c3ncc4c(N5CCOC[C@H]6[C@H](F)[C@H]65)nc(OC[C@@]56CCCN5CC(=C(F)F)C6)nc4c3F)c12 [Example 146, (1S,7S,8S)-2-(2-(((S)-2-(difluoromethylene)tetrahydro-1H-pyrrolizin-7a(5H)-yl)methoxy)-8-fluoro-7-(7-fluoro-8-(fluoromethoxy-d2)naphthalen-1-yl)pyrido[4,3-d]pyrimidin-4-yl)-8-fluoro-5-oxa-2-azabicyclo[5.1.0]octane] | < 50 |
| [2H]C([2H])(Oc1nc(N2CCOC[C@H]3[C@H](F)[C@H]32)c2cc(Cl)c(-c3cc(N)cc(C4CC4)c3C(F)(F)F)c(F)c2n1)[C@@]12CCCN1C[C@H](F)C2 [Example 183, 3-(6-chloro-8-fluoro-4-((1S,7S,8S)-8-fluoro-5-oxa-2-azabicyclo[5.1.0]octan-2-yl)-2-(((2R,7aS)-2-fluorotetrahydro-1H-pyrrolizin-7a(5H)-yl)methoxy-d2)quinazolin-7-yl)-5-cyclopropyl-4-(trifluoromethyl)aniline] | 500 to 10000 |
| C#Cc1c(F)ccc2cc(N)cc(-c3ncc4c(N5CCOC[C@H]6[C@H](F)[C@H]65)nc(OC[C@@]56CCCN5CC(=C(F)F)C6)nc4c3C)c12 [Example 428, 4-(2-(((S)-2-(difluoromethylene)tetrahydro-1H-pyrrolizin-7a(5H)-yl)methoxy)-4-((1S,7S,8S)-8-fluoro-5-oxa-2-azabicyclo[5.1.0]octan-2-yl)-8-methylpyrido[4,3-d]pyrimidin-7-yl)-5-ethynyl-6-fluoronaphthalen-2-amine] | < 50 |
| C#Cc1c(F)ccc2cc(N)cc(-c3ncc4c(N5CCOC[C@H]6[C@H](F)[C@H]65)nc(OC[C@]56C[C@@H](F)CN5CCC6=O)nc4c3F)c12 [Example 414, (6R,7aS)-7a-(((7-(3-amino-8-ethynyl-7-fluoronaphthalen-1-yl)-8-fluoro-4-((1S,7S,8S)-8-fluoro-5-oxa-2-azabicyclo[5.1.0]octan-2-yl)pyrido[4,3-d]pyrimidin-2-yl)oxy)methyl)-6-fluorohexahydro-1H-pyrrolizin-1-one] | < 50 |

same assay, conditions: Homo sapiens, NCI-H441, pERK HTRF, NCI-H441 cells (KRAS G12V)

| Compound | IC50 [nM] |
| --- | --- |
| [2H]C([2H])(Oc1nc(N2CCOC[C@H]3C[C@H]32)c2cnc(-c3ccc(F)c4sc(N)c(C#N)c34)c(F)c2n1)[C@@]12CCCN1C[C@H](F)C2 [Example 48, 4-(4-((1R,7S)-5-Oxa-2-azabicyclo[5.1.0]octan-2-yl)-8-fluoro-2-(((2R,7aS)-2-fluorotetrahydro-1H-pyrrolizin-7a(5H)-yl)methoxy-d2)pyrido[4,3-d]pyrimidin-7-yl)-2-amino-7-fluorobenzo[b]thiophene-3-carbonitrile] | 50 to 500 |
| [2H]C([2H])(Oc1nc(N2CCCO[C@@H]3C[C@@H]32)c2cnc(-c3cc(N)cc4cc(F)c(F)c(C#C)c34)c(F)c2n1)[C@@]12CCCN1C[C@H](F)C2 [Example 18, 4-(4-((1R,7S)-2-Oxa-6-azabicyclo[5.1.0]octan-6-yl)-8-fluoro-2-(((2R,7aS)-2-fluorotetrahydro-1H-pyrrolizin-7a(5H)-yl)methoxy-d2)pyrido[4,3-d]pyrimidin-7-yl)-5-ethynyl-6,7-difluoronaphthalen-2-amine] | 500 to 10000 |
| [2H]C([2H])(Oc1nc(N2CCCC[C@H]3[C@H](F)[C@H]32)c2cnc(-c3cccc4ccc(F)c(C#C)c34)c(F)c2n1)[C@@]12CCCN1C[C@H](F)C2 [Example 78, 7-(8-Ethynyl-7-fluoronaphthalen-1-yl)-8-fluoro-4-((1S,7R,8S)-8-fluoro-2-azabicyclo[5.1.0]octan-2-yl)-2-(((2R,7aS)-2-fluorotetrahydro-1H-pyrrolizin-7a(5H)-yl)methoxy-d2)pyrido[4,3-d]pyrimidine] | < 50 |

same assay, conditions: cellular pERK (Thr202/Tyr204) HTRF, NCI-H441 cells

| Compound | IC50 [nM] |
| --- | --- |
| [2H]C([2H])(Oc1nc(N2CCOC[C@H]3[C@H](F)[C@H]32)c2cc(C#N)c(-c3cc(N)cc4ccc(F)c(C#C)c34)c(F)c2n1)[C@@]12CCCN1C[C@H](F)C2 (atropisomer, axis not shown; (aS)) [Example 360, (R)-7-(3-amino-8-ethynyl-7-fluoronaphthalen-1-yl)-8-fluoro-4-((1S,7S,8S)-8-fluoro-5-oxa-2-azabicyclo[5.1.0]octan-2-yl)-2-(((2R,7aS)-2-fluorotetrahydro-1H-pyrrolizin-7a(5H)-yl)methoxy-d2)quinazoline-6-carbonitrile] | 500 to 10000 |
| [2H]C([2H])(Oc1nc(N2CCOC[C@H]3[C@H](F)[C@H]32)c2cc(C#N)c(-c3ccc(F)c4sc(N)c(C#N)c34)c(F)c2n1)[C@@]12CCCN1C[C@H](F)C2 (atropisomer, axis not shown; (aS)) [Example 351, (R)-7-(2-amino-3-cyano-7-fluorobenzo[b]thiophen-4-yl)-8-fluoro-4-((1S,7S,8S)-8-fluoro-5-oxa-2-azabicyclo[5.1.0]octan-2-yl)-2-(((2R,7aS)-2-fluorotetrahydro-1H-pyrrolizin-7a(5H)-yl)methoxy-d2)quinazoline-6-carbonitrile] | 500 to 10000 |
